# From ChEMBL document CHEMBL1201862, “PubChem BioAssay data set” (2004)
# “And” between values parts separate entries of the source, which are not always exact repeats. Identical values can stand only once. The source made the active and inactive calls.
# Tests used:
# [1] = biological target: Dual specificity tyrosine-phosphorylation-regulated kinase 1A (Rattus norvegicus, UniProt Q63470); type: biochemical, Homo sapiens
# [2] = biological target: T1, Microphthalmia-associated transcription factor (Homo sapiens, UniProt O75030); test: TRPM1 promoter luciferase signal decrease, dose response, MITF inhibitor project, cell-based, SK-MEL-5, cherry-picked, set 3 (AID 493073); type: functional
# T1 sequence (O75030 whole entry): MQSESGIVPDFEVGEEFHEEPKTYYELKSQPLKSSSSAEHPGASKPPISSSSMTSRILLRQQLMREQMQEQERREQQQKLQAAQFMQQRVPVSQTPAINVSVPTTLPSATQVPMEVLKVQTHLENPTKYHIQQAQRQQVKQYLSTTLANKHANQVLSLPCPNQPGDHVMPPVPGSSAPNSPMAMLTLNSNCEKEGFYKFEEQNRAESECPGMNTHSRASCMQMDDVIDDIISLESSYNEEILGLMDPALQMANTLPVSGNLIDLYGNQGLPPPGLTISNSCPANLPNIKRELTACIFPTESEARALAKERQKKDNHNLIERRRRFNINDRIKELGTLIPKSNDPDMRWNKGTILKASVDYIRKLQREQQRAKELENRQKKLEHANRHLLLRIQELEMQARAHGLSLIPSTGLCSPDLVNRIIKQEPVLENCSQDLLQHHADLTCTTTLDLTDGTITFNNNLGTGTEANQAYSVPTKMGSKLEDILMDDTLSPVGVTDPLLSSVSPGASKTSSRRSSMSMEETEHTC
# [3] = Vero E6 cell cytotoxicity, dose response, cytotoxicity control for non-replicating M. tuberculosis project, secondary assay (AID 492998); type: functional, VeroE6; details: Vero C1008
# [4] = THP-1 cell cytotoxicity, dose response, cytotoxicity control for non-replicating M. tuberculosis project (AID 489025); type: functional
# [5] = biological target: T2, Protein skinhead-1 (Caenorhabditis elegans, UniProt P34707); type: functional
# T2 sequence (P34707 whole entry): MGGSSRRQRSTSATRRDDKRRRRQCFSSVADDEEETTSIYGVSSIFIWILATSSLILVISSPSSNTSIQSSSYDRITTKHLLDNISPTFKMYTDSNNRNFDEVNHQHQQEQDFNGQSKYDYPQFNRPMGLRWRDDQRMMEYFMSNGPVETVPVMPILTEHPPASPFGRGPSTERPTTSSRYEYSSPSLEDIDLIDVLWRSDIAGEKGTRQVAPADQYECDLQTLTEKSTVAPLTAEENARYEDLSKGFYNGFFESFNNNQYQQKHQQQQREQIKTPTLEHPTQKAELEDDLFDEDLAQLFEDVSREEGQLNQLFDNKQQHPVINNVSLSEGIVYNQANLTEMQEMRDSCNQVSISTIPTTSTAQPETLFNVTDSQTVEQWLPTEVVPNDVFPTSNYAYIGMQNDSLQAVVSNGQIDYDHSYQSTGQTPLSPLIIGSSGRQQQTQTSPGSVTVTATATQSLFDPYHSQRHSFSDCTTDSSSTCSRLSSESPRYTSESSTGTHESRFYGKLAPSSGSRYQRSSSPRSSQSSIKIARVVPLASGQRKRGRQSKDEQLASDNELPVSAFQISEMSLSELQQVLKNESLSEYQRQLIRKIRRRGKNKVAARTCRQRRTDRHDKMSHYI
# [6] = cells; type: functional
# [7] = biological target: DNA dC->dU-editing enzyme APOBEC-3G (Homo sapiens, UniProt Q9HC16); test: Dose Response confirmation of small molecule APOBEC3G DNA Deaminase Inhibitors via a fluorescence-based single-stranded DNA deaminase assay. [Related pubchem assays (depositor defined):AID493012, AID493028]; type: functional
# [8] = biological target: Cytochrome P450 2C19 (Homo sapiens, UniProt P33261); test: Cytochrome panel assay with activity outcomes. Panel member name: p450-cyp2c19 Compounds with AC50 equal or less than 10 uM are considered active; type: functional; details: read-out: AC50
# [9] = biological target: T3, Cytochrome P450 3A4 (Homo sapiens, UniProt P08684); details: Potency
# [10] = biological target: T4, Alkaline phosphatase, tissue-nonspecific isozyme (Homo sapiens, UniProt P05186); test: TNAP enzyme inhibition by screening hits, dose response, selectivity assay for mouse IAP inhibitor project, biochemical, human TNAP, uHTS hits (AID 488906); type: functional
# T4 sequence (P05186 whole entry): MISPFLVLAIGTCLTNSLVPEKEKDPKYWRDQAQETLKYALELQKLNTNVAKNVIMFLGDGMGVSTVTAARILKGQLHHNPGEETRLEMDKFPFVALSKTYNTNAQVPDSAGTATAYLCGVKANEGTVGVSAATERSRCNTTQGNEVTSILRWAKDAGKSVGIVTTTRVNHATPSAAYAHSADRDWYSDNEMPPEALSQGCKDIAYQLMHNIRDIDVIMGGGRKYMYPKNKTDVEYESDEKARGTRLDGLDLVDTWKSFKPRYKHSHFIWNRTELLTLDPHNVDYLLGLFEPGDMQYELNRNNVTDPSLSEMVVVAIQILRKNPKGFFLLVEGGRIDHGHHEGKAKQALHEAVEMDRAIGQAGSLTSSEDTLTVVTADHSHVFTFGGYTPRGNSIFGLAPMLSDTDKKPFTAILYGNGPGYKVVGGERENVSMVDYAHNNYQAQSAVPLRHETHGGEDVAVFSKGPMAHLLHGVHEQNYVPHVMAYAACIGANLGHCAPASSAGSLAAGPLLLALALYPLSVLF
# [11] = biological target: Intestinal-type alkaline phosphatase (Mus musculus, UniProt P24822); test: PubChem AID 488785; type: functional
# [12] = biological target: T5, Caspase-6 (Homo sapiens, UniProt P55212); test: human caspase-6 inhibitors, dose response, biochemical, VEID-R110 fluorescence, cherry-pick (AID 720632)
# T5 sequence (P55212 whole entry): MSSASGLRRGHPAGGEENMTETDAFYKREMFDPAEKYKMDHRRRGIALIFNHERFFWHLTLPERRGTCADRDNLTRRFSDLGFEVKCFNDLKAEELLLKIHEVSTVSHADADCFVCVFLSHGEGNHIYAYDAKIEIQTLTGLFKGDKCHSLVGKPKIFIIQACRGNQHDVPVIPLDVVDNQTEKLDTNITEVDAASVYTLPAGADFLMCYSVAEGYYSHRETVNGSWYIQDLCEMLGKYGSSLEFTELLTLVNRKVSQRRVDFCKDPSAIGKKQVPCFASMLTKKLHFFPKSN
# [13] = biological target: T3, Cytochrome P450 3A4
# [14] = biological target: T6, Nucleotide-binding oligomerization domain-containing protein 1 (Homo sapiens, UniProt Q9Y239); test: NOD1 signaling inhibitors, SAR follow-up, revised (AID 2333); type: functional
# T6 sequence (Q9Y239 whole entry): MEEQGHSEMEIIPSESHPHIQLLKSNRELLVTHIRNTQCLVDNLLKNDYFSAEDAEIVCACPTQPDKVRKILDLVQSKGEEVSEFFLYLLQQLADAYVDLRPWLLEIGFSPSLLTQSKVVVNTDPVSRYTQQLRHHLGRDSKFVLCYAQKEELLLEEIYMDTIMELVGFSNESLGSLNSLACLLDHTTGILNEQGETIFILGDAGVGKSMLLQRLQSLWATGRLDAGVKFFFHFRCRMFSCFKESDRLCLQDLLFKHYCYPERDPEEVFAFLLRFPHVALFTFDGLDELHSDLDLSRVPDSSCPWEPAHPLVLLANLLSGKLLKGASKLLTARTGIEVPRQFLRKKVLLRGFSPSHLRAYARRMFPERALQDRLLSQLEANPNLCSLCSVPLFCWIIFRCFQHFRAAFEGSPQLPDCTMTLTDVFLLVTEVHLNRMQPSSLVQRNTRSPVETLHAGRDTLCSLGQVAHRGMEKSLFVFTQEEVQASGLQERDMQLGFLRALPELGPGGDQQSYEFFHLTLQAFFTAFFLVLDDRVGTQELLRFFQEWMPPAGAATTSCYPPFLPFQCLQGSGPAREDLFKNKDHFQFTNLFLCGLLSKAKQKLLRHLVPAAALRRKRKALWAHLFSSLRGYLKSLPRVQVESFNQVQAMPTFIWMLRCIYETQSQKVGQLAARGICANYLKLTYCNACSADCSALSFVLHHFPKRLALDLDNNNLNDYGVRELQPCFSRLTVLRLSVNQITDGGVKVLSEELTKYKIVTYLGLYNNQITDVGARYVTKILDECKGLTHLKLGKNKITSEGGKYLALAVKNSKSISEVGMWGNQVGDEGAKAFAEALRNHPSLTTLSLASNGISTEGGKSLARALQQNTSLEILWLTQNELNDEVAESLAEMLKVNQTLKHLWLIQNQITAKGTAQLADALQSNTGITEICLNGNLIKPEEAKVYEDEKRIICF
# [15] = tested on: HEK293; test: NOD1 signaling inhibitors, primary screen, cell-based, luminescence, uHTS (AID 1578); type: functional; details: Homo sapiens
# [16] = tested on: HEK293; test: cells; type: functional, cell-based; details: Homo sapiens
# [17] = tested on: HEK293; test: cells; details: Homo sapiens
# [18] = tested on: HEK293; test: NOD2 signaling inhibitors in MDP-stimulated cells, cell-based, uHTS, luminescence (AID 2001); type: functional; details: Homo sapiens
# [19] = tested on: HEK293; test: cells; type: functional, cell-based; details: Homo sapiens; remark: listed apart in the source
# [20] = biological target: Tumor necrosis factor (Homo sapiens, UniProt P01375); test: TNFa-triggered NF-kB activation inhibitors, SAR follow-up, cell-based, revised (AID 2337); type: functional
# [21] = tested on: Streptococcus; test: Group A Streptococcus viability loss, dose response, counter-screen for streptokinase expression inhibitor project, luminescence, BacTiterGlo (AID 1915); type: functional, organism-based;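 note: potency for reduction of bacterial viability or growth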
# [22] = biological target: T7, Type-1 angiotensin II receptor (Homo sapiens, UniProt P30556); test: AT1 receptor antagonists, dose response, selectivity assay for APJ receptor antagonist project, cell-based, uHTS hits (AID 463214); type: functional;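 note: antagonist potency against angiotensin II stimulated AT1 response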
# T7 sequence (P30556 whole entry): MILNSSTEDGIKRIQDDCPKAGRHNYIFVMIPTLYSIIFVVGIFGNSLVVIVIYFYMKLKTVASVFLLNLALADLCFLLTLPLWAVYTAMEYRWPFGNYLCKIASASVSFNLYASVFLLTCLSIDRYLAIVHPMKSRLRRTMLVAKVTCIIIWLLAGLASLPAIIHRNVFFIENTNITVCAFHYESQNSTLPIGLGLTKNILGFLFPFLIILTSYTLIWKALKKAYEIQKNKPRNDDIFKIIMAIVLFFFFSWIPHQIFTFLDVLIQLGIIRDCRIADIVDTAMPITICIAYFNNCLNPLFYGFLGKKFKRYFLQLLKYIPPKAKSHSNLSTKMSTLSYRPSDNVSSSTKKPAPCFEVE
# [23] = biological target: Beta-galactosidase (Escherichia coli, UniProt Q8VNN2); test: PubChem AID 485352; type: functional
# [24] = biological target: Nonstructural protein 1 (Influenza A virus, UniProt Q194T2); type: functional, Influenza A virus (A/California/07/2009(H1N1))
# [25] = biological target: T8, Streptokinase A (Streptococcus pyogenes serotype M1, UniProt P10520); test: S. pyogenes streptokinase expression inhibitors, potency, dose response, plasminogen activation absorbance, OD405 (AID 1914); type: functional, Streptococcus pyogenes M1 GAS;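 note: secreted streptokinase activity via plasminogen activation per viability signal from cell pellet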
# T8 sequence (P10520 whole entry): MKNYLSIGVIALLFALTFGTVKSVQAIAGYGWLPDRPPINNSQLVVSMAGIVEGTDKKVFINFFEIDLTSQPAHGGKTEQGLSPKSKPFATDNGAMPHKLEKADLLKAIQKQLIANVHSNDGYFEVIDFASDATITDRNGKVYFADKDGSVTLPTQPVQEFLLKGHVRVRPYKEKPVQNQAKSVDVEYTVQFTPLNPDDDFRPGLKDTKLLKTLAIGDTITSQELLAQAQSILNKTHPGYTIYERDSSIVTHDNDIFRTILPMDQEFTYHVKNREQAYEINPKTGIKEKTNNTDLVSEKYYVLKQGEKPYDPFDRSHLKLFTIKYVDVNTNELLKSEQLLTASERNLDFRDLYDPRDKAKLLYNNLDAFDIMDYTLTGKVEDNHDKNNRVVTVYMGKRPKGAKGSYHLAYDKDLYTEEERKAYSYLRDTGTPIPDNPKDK
# [26] = tested on: Streptococcus sp. 'group A'; test: growth inhibition of control SK(-) GAS strain, dose response, counter-screen for streptokinase expression inhibitor project, luminescence, kanamycin, BacTiterGlo, confirmation (AID 1900); type: functional, organism-based
# Sequence of Cytochrome P450 2C19 (P33261 whole entry): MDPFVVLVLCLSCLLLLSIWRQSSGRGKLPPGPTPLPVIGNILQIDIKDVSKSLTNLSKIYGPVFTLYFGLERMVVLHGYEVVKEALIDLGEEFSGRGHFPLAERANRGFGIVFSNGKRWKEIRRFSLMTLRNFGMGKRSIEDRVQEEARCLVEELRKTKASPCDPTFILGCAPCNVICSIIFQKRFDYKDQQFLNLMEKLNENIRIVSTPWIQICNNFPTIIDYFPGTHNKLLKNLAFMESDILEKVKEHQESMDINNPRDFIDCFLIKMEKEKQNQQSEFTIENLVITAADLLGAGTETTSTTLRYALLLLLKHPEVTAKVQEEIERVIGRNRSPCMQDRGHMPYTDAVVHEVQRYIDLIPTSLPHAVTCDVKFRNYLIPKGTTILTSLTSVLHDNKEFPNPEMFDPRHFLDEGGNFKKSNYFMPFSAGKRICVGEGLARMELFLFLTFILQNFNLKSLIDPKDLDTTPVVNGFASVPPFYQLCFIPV
# Sequence of Beta-galactosidase (Q8VNN2 whole entry): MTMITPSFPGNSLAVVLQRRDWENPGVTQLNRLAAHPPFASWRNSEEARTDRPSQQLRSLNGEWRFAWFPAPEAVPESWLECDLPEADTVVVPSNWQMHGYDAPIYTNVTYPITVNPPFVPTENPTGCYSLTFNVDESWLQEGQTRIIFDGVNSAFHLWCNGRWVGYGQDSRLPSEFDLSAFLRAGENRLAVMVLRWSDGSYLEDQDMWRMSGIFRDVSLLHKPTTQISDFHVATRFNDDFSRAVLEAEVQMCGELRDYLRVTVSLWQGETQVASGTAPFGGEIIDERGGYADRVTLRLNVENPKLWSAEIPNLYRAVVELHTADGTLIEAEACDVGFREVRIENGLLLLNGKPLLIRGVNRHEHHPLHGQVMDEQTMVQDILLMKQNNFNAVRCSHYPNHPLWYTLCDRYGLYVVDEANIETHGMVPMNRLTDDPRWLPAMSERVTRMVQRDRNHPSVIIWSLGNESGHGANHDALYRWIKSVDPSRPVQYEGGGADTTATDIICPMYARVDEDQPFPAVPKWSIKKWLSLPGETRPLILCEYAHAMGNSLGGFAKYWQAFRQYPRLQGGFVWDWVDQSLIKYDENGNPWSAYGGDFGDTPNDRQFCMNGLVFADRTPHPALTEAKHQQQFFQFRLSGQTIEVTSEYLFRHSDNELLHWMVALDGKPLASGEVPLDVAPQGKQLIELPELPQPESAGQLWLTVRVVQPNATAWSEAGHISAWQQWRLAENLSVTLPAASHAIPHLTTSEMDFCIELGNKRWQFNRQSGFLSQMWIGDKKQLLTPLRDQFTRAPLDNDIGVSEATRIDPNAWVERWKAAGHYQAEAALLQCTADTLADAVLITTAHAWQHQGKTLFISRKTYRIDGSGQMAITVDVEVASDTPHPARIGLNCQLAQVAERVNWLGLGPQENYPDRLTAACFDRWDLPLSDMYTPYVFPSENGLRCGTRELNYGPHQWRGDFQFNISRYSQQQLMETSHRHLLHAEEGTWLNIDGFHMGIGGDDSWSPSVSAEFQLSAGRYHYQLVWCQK
# T3 sequence (P08684 whole entry): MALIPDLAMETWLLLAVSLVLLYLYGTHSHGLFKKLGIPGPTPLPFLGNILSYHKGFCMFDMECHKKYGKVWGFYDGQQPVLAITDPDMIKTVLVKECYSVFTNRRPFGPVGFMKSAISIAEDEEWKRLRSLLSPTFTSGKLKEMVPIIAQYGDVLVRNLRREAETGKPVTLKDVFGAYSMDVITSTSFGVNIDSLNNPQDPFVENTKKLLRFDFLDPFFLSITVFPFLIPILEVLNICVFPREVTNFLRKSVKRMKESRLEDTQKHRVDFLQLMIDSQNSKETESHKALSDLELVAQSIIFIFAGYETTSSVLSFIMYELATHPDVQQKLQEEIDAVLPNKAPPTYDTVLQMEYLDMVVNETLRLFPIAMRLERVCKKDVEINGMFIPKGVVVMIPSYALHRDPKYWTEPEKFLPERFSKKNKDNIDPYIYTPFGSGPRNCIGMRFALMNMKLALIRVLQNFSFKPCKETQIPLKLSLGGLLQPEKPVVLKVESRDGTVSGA
# Sequence of DNA dC->dU-editing enzyme APOBEC-3G (Q9HC16 whole entry): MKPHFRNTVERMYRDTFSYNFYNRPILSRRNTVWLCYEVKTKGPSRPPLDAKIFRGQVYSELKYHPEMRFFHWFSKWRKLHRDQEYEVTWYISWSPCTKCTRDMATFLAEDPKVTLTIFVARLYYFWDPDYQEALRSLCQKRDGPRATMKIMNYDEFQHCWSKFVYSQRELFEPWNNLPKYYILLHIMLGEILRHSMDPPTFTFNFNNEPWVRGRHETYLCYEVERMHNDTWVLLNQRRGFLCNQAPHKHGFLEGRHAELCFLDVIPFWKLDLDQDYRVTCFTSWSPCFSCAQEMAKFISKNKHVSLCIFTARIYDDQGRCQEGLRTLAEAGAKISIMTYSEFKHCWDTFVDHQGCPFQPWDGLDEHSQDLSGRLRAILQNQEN
# Sequence of Intestinal-type alkaline phosphatase (P24822 whole entry): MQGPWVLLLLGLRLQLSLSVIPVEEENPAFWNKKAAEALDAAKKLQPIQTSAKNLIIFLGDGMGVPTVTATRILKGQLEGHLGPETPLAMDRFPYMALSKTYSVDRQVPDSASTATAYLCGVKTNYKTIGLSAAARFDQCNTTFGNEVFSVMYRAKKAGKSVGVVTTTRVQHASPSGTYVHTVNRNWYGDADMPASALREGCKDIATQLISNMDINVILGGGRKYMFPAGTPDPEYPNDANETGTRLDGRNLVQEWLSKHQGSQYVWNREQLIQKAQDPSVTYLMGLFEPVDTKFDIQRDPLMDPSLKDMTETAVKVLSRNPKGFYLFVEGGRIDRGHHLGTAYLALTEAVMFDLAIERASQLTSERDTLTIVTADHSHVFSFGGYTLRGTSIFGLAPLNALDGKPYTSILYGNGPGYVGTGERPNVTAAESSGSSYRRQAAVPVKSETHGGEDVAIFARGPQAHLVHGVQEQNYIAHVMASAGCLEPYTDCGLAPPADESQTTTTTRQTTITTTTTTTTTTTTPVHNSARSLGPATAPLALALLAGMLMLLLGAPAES
# Sequence of Tumor necrosis factor (P01375 whole entry): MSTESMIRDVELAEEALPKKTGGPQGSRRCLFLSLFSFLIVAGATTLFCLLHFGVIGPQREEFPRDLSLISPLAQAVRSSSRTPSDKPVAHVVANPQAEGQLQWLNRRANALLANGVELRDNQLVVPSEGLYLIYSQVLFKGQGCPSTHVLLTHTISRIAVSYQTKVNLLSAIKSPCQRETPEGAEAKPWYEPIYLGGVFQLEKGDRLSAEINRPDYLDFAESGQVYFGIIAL
# Sequence of Nonstructural protein 1 (Q194T2 whole entry): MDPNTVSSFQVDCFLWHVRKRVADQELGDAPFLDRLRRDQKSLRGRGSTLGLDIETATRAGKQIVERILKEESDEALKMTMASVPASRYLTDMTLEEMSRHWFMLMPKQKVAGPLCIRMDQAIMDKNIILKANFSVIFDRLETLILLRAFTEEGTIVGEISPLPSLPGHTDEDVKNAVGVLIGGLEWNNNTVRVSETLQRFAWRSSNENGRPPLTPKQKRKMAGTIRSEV
compound,measurement,setting,value
CCOC(=O)CSC1=NC(=O)/C(=C/c2ccc(OC)cc2)S1,AC50,[1],0.395 µM (active)
same,AC50,[2],3.98 µM (active)
O=C(Nc1nc(-c2cc(F)ccc2F)cs1)c1ccccn1,CC50,[3],> 20 µM (active)
same,CC50,[4],29.4 µM (active)
same,IC50,[5],> 100 µM (inactive)
same,IC50,[6],0.83 µM (active)
O=c1c(O)c(-c2cc(O)c(O)c(O)c2)oc2cc(O)cc(O)c12 [MYRICETIN],IC50,[7],2.39 µM (active)
same,AC50,[8],3.98 µM (inconclusive) and 20 µM (inconclusive)
same,AC50,[9],25.1 µM (inconclusive)
same,IC50,[10],33.2 µM (active)
same,IC50,[11],12.5 µM (active)
same,AC50,[12],0.461 µM (active)
same,AC50,[13],3.98 µM (inconclusive)
Cc1ccc(C(=O)N2CCN(c3ccc(F)cc3)CC2)cc1S(=O)(=O)N1CCCCC1,IC50,[14],5.07 µM (active)
same,EC50,[15],5.48 µM (active)
same,IC50,[16],> 20 µM (inactive)
same,IC50,[17],> 20 µM (inactive)
same,IC50,[18],12.9 µM (inactive)
same,IC50,[19],11.2 µM (active)
same,IC50,[20],9.82 µM (active)
CCSc1nnc(NC(=O)c2ccccn2)s1,EC50,[21],15.3 µM (active)
same,IC50,[22],16.8 µM (active)
same,EC50,[23],> 40 µM (inactive)
same,IC50,[24],10.6 µM (active)
same,EC50,[25],> 150 µM (not active)
same,EC50,[26],6.34 µM (active)
CC(=O)NC12CC3CC(C1)CC(C(=O)Nc1nc4ccc(F)cc4s1)(C3)C2,AC50,[1],2.64 µM (active)
CC1(C)CC2(CC(c3ccccc3F)c3cc(Cl)c(O)cc3O2)NC(=S)N1 (centres undefined),IC50,[22],> 40 µM (not active)
same,EC50,[23],> 40 µM (inactive)
